Test results from US10292949B2, “Pharmaceutical composition comprising rimeporide for treating diseases associated with insulin resistance and β-cell dysfunction” (Merck Patent GmbH, priority 2008, dated 2019).

What was measured:
Type in all cases: in vivo, rat
[1] = test system: obese Zucker fa/fa rats; test: Pharmacological Study Report II: random and fasting (4 h) blood glucose and plasma insulin levels; settings: for Baseline Insulin (fasting) / Change in Insulin (fasting) / Week 4 Insulin (fasting): Mean ± SD; for Change in Insulin (fasting): change over the 4 week treatment period; for Week 4 Insulin (fasting): week 4 of treatment
Procedure: (§1) Thirty-six obese Zucker fa/fa and six lean Zucker fa/? male rats obtained from Charles River, were housed under normal vivarium conditions on a 12 hour light/dark cycle. The rats were kept two to a cage with food and water available ad lib, except during the weekly, 4 hour fasts. Water continued to be available during these fasts.
(§2) Compound A corresponds to Cariporide. Compound B corresponds to 2-Methyl-4,5-di-(methylsulfonyl)-benzoyl-guanidine hydrochloride hydrate. Compounds A and B were supplied in powder form by Merck Serono. Drugs were incorporated into a pelleted diet (LabDiet, 5001) by Research Diets, Inc (New Brunswick, N.J.) at concentrations of 0.44 g/kg or 0.88 g/kg of diet to yield approximate doses of 40 or 80 mg/kg. The concentration was calculated based on the assumption that a 300 g rat would eat about 30 g/d of chow. The same chow, but without drug, was fed to rats of both the lean and fa/fa control group animals.
(§3) One week prior to the start of the study, all rats were weighed. After a 4 hour fast, a blood sample was obtained for the determination of blood glucose, insulin, and glycosylated hemoglobin levels (HbA1c). Animals were then sorted on the basis of these parameters into the groups listed below. Rats were eight weeks of age at the onset of treatment.
(§4) • 1. ZF rats (fa/fa) (n=6) chow without drug • 2. ZF rats (fa/fa) (n=6) compound A (40 mg/kg/day) • 3. ZF rats (fa/fa) (n=6) compound A (80 mg/kg/day) • 4. ZF rats (fa/fa) (n=6) compound B (40 mg/kg/day) • 5. ZF rats (fa/fa) (n=6) compound B (80 mg/kg/day) • 6. lean Zucker rats (fa/?) (n=6) chow without drug Dosing Regime
(§5) Treatment appropriate chow was continuously available for 4 weeks except during scheduled 4 h fasts conducted once per week.
Both random and fasting (4 h) blood glucose levels were determined using a hand-held glucometer (OneTouch Ultra, Lifescan, Inc. Milapitas, Calif.) on blood obtained from tail capillary samples. Plasma insulin levels were determined by a rat specific ELISA (Ultra Sensitive Rat Insulin ELISA Kit, Crystal Chem, Inc., Chicago, Ill.). The 4 h fast period started at 9 a.m. and ended after a blood draw at 1 p.m.

[2] = test system: Obese, insulin resistant ZF (fa/fa) rats; test: Pharmacological Study Report I: deuterated glucose disposal test (2H-GDT); settings: 4 weeks, Compound A 150 mg/kg gavage twice daily
Procedure: (§6) Obese, insulin resistant ZF (fa/fa) rats, which are treated from the age of 8-12 weeks, were used as IR model. Rats were housed with a 12-h light/dark cycle and free access to food and water unless otherwise noted. Studies were approved by the Institutional Animal Care and Use Committee. There were a total of 18 animals in the study (8 week-old males, provided by Charles River). Animals were randomized into 3 groups (vehicle group, Compound A group, Compound B group, n=6 per group) based on random glucose level at the beginning of the study: • Group 1: ZF rats (fa/fa) (n=6), compound A (150 mg/kg via gavage) • Group 2: ZF rats (fa/fa) (n=6), compound B (40 mg/kg/day as admixture to the chow) • Group 3: ZF rats (fa/fa) (n=6), vehicle treatment (control chow, vehicle gavage)
(§7) Group 1 and 3 animals were treated with compound A or vehicle (water) for 4 weeks (from age 8-12 weeks) via oral gavage, twice daily. Chow containing compound B was fed to Group 2 ad lib. Group 1 and Group 3 were fed with chow without compound B ad lib.
Rats underwent a 4 hour fast. […] At t=0, the blood glucose concentrations were determined with a glucometer, and a blood sample was obtained for determination of base line insulin and H2O^18 dilution. […]
One hundred micro liter aliquots of plasma samples inside the cape of an inverted vial were placed in a heating blocked filled with glass beads at 70° C. overnight and the water distillate inside the vial was collected. The deuterium and oxygen-18 isotope ratios of the blood of plasma samples were determined using a Thermo Finnigan High Temperature Conversion/Elemental Analyzer coupled with a Thermo Finnigan MAT 253 IRMS via a Conflo-III Interface. […] The deuterium isotope abundance is first calculated in δ 2H values relative to the international VSMOW standard, and then transformed to APE by using a calibration curve of standards with known enrichments. The ^2H2O enrichment was calculated for rats at 30 min after the glucose load. ^2H2O enrichment was converted to mmoles by multiplying enrichment by the TBW pool size and dividing by 20 (MW ^2H2O). […]

[3] = test system: obese Zucker fa/fa rats; test: Pharmacological Study Report II: HbA1c levels; settings: Mean ± SD; for Base line HbA1c: baseline; for Change in HbA1c: change over the 4 week treatment period; for Week 4 HbA1c: week 4 of treatment
Procedure: as §1, §2, §3, §4, §5
HbA1c level were determined using a DCA 2000 analyzer (Bayer Healthcare LLC, Elkhart Ind.) prior to beginning the study and again at the end of the 4th week treatment period.

[4] = Pharmacological Study Report I: body weight of ZF (fa/fa) rats during 4 weeks of treatment; settings: age 8-12 weeks, Compound A 150 mg/kg gavage twice daily, Compound B 40 mg/kg/day in chow
Procedure: as §6, §7

**Q.** Which Fasting glucose concentration ([1]; 40 mg/kg, after 4 weeks of administration, 4 h fast) does the source give for `CC(C)c1ccc(C(=O)NC(=N)N)cc1S(C)(=O)=O` [Compound A, Cariporide] here?
**A.** increased

**Q.** And the “Fasting insulin relative to the fa/fa vehicle control” value ([1]; 80 mg/kg, 4th week of treatment)?
**A.** significantly decreased

**Q.** And the “Baseline Insulin (fasting)” value ([1]; 40 mg/kg group)?
**A.** 17.6 ± 5.1 ng/mL

**Q.** And the “Baseline Insulin (fasting)” value ([1]; 80 mg/kg group)?
**A.** 15.9 ± 5.5 ng/mL

**Q.** What about the “Change in Insulin (fasting)” value ([1]; 40 mg/kg) of the same compound?
**A.** 0.6 ± 9.6 ng/mL

**Q.** And the “Change in Insulin (fasting)” value ([1]; 80 mg/kg)?
**A.** -3.4 ± 8.2 ng/mL

**Q.** What about the “Week 4 Insulin (fasting)” value ([1]; 40 mg/kg in chow) of the same compound?
**A.** 18.2 ± 11.8 ng/mL

**Q.** What about the “Week 4 Insulin (fasting)” value ([1]; 80 mg/kg in chow) of the same compound?
**A.** 12.5 ± 7.5 ng/mL

**Q.** What about the “Insulin sensitivity (% 2H2O recovery per insulin AUC), post-treatment compared to pre-treatment” value [2] of the same compound?
**A.** no significant change

**Q.** What about the “Pancreatic compensation (% 2H2O recovery), before vs after treatment within group” value ([2]; Compound B 40 mg/kg/day in chow, 90 minute % D2O recovery) of the same compound?
**A.** exhibited lower pancreatic compensation post-treatment

**Q.** And the “Base line HbA1c” value ([3]; 40 mg/kg group)?
**A.** 4.0 ± 0.5%

**Q.** And the “Base line HbA1c” value ([3]; 80 mg/kg group)?
**A.** 3.9 ± 0.4%

**Q.** What about the “Change in HbA1c” value ([3]; 40 mg/kg) of the same compound?
**A.** 0.4 ± 0.6%

**Q.** What about the “Change in HbA1c” value ([3]; 80 mg/kg) of the same compound?
**A.** 0.4 ± 0.9%

**Q.** And the “Week 4 HbA1c” value ([3]; 40 mg/kg in chow)?
**A.** 4.4 ± 0.2%

**Q.** And the “Week 4 HbA1c” value ([3]; 80 mg/kg in chow)?
**A.** 4.4 ± 0.52%

**Q.** What about the “Body weight, difference among vehicle- and compound-treated groups” value [4] of the same compound?
**A.** no significant differences
